Assay results reported in ChEMBL document CHEMBL1201862, “PubChem BioAssay data set” (2004).
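Exposure lasted 48 hours, with cells grown in 96-well plates and compounds tested at five concentrations. At the GI50, growth is halved.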 The source made the active and inactive calls. Cut-off read from the data, not from the text of the source: active = GI50 up to about 1.1 µM and inactive = higher. Non-standard residues stand in square brackets, D forms with d. Residues, ends and D or L forms follow the SMILES beside them. ξ: configuration not given here. *: point of attachment. ξHyp = O=C(O)C1CC(O)CN1; Cbz = O=C(OCc1ccccc1)*

Tests used:
Experiment in all cases: NCI tumour cell line growth inhibition, 48 h
[1] = tested on: 786-0
[2] = tested on: A549
[3] = tested on: ACHN
[4] = tested on: BT-549
[5] = tested on: COLO 205
[6] = tested on: HCT-116
[7] = tested on: HOP-92
[8] = tested on: K562
[9] = tested on: NCI-H226
[10] = tested on: NCI-H460
[11] = tested on: OVCAR-8
[12] = tested on: SF-295
[13] = tested on: SK-MEL-28
[14] = tested on: SNB-19
[15] = tested on: T47D
[16] = tested on: TK-10
[17] = tested on: UACC-62
[18] = tested on: SK-MEL-2
[19] = tested on: UO-31

SMILES	GI50 [1]	GI50 [2]	GI50 [3]	GI50 [4]	GI50 [5]	GI50 [6]	GI50 [7]	GI50 [8]	GI50 [9]	GI50 [10]	GI50 [11]	GI50 [12]	GI50 [13]	GI50 [14]	GI50 [15]	GI50 [16]	GI50 [17]	GI50 [18]	GI50 [19]
CCNC1=C(NC(=O)c2ccc(F)cc2)C(=O)c2ccccc2C1=O	> 100 µM (inactive)	70.8 µM (inactive)	> 100 µM (inactive)	> 100 µM (inactive)	26.7 µM (inactive)	30.3 µM (inactive)	> 100 µM (inactive)	65.8 µM (inactive)	> 100 µM (inactive)	50.1 µM (inactive)	32.7 µM (inactive)	52.6 µM (inactive)	> 100 µM (inactive)	> 100 µM (inactive)	47.1 µM (inactive)	> 100 µM (inactive)	15.1 µM (inactive)		
Cc1ccc(Cc2cc(N3CCN(c4cccc(Cl)c4)CC3)nnc2C)cc1	45.2 µM (inactive)	43 µM (inactive)	88.5 µM (inactive)	> 100 µM (inactive)	29.6 µM (inactive)	22.5 µM (inactive)				20.7 µM (inactive)	54.8 µM (inactive)	42.9 µM (inactive)	> 100 µM (inactive)	> 100 µM (inactive)	24.3 µM (inactive)	> 100 µM (inactive)	> 100 µM (inactive)	96.2 µM (inactive)	> 100 µM (inactive)
O=C1C(Cl)C(c2cccc(Cl)c2)N1c1ccc(-n2c(S)nc3ccccc3c2=O)cc1 (centres undefined)	19 µM (inactive)	28.2 µM (inactive)	18.7 µM (inactive)	39.4 µM (inactive)	24.5 µM (inactive)	24.4 µM (inactive)	19.9 µM (inactive)	17.9 µM (inactive)	25.4 µM (inactive)	16.5 µM (inactive)	37.3 µM (inactive)	19.2 µM (inactive)		2.47 µM (inactive)	31.8 µM (inactive)	29.6 µM (inactive)	14.8 µM (inactive)		20 µM (inactive)
CCOC(=O)C12CCC(=O)N1N(C)c1ncccc1N2 (centres undefined)	> 100 µM (inactive)	> 100 µM (inactive)	> 100 µM (inactive)	> 100 µM (inactive)	> 100 µM (inactive)	> 100 µM (inactive)		> 100 µM (inactive)	> 100 µM (inactive)	> 100 µM (inactive)	> 100 µM (inactive)	> 100 µM (inactive)	> 100 µM (inactive)	> 100 µM (inactive)	> 100 µM (inactive)	> 100 µM (inactive)	> 100 µM (inactive)	< 0.01 µM (active)	> 100 µM (inactive)
N#C/C(=C\Nc1ccccn1)C(=O)c1ccco1	> 100 µM (inactive)	> 100 µM (inactive)	> 100 µM (inactive)	> 100 µM (inactive)	> 100 µM (inactive)	> 100 µM (inactive)	> 100 µM (inactive)	> 100 µM (inactive)	> 100 µM (inactive)	> 100 µM (inactive)	> 100 µM (inactive)	> 100 µM (inactive)	> 100 µM (inactive)	> 100 µM (inactive)		> 100 µM (inactive)	> 100 µM (inactive)	> 100 µM (inactive)	> 100 µM (inactive)
NC(=O)CNC(=O)C1CC(O)CN1C(=O)OCc1ccccc1 (centres undefined) (Cbz-[ξHyp]-Gly-NH2)	> 100 µM (inactive)	> 100 µM (inactive)	> 100 µM (inactive)	> 100 µM (inactive)	> 100 µM (inactive)	> 100 µM (inactive)		> 100 µM (inactive)	> 100 µM (inactive)	> 100 µM (inactive)	> 100 µM (inactive)	> 100 µM (inactive)	> 100 µM (inactive)	> 100 µM (inactive)	> 100 µM (inactive)	> 100 µM (inactive)	> 100 µM (inactive)	> 100 µM (inactive)	> 100 µM (inactive)
CCOC(=O)C(NC(=O)NC(C(=O)OCC)C(=O)OCC)C(=O)OCC	> 100 µM (inactive)	> 100 µM (inactive)	> 100 µM (inactive)	> 100 µM (inactive)		> 100 µM (inactive)	> 100 µM (inactive)	> 100 µM (inactive)	> 100 µM (inactive)	> 100 µM (inactive)	> 100 µM (inactive)	49.9 µM (inactive)	> 100 µM (inactive)	> 100 µM (inactive)		> 100 µM (inactive)	> 100 µM (inactive)	> 100 µM (inactive)	> 100 µM (inactive)
S=c1nc(Nc2ccccc2)c2c3c(sc2[nH]1)CCCC3	> 100 µM (inactive)		> 100 µM (inactive)	> 100 µM (inactive)	> 100 µM (inactive)	> 100 µM (inactive)		> 100 µM (inactive)	> 100 µM (inactive)	> 100 µM (inactive)	> 100 µM (inactive)	> 100 µM (inactive)	> 100 µM (inactive)	> 100 µM (inactive)	> 100 µM (inactive)	> 100 µM (inactive)	> 100 µM (inactive)	> 100 µM (inactive)	> 100 µM (inactive)
CC(C)C1CC[C@H](C)C[C@@H]1OC(=O)C(C(=O)O[C@H]1C[C@@H](C)CCC1C(C)C)C(O)[C@@H]1OC(C)(C)O[C@H]1C1COC(C)(C)O1 (some centres undefined)	16.6 µM (inactive)	22.3 µM (inactive)	16.6 µM (inactive)	19 µM (inactive)	13.6 µM (inactive)	11.7 µM (inactive)		11.1 µM (inactive)	23.8 µM (inactive)	15 µM (inactive)	21 µM (inactive)	16.1 µM (inactive)	18.3 µM (inactive)	16.3 µM (inactive)	13.1 µM (inactive)	20 µM (inactive)	18.8 µM (inactive)	19.4 µM (inactive)	17.3 µM (inactive)
O=C(Cn1c2ccc(Br)cc2c2nc3ccccc3nc21)N/N=C/c1ccccc1	12.3 µM (inactive)	> 100 µM (inactive)	> 100 µM (inactive)	> 100 µM (inactive)	> 100 µM (inactive)			43.4 µM (inactive)	> 100 µM (inactive)		> 100 µM (inactive)	16.3 µM (inactive)	> 100 µM (inactive)	79.3 µM (inactive)	> 100 µM (inactive)	> 100 µM (inactive)	72.9 µM (inactive)	83.6 µM (inactive)	> 100 µM (inactive)
N#Cc1ccc(-c2nc3c(N)ncnc3o2)cc1	63.8 µM (inactive)	> 100 µM (inactive)	75 µM (inactive)	> 100 µM (inactive)	> 100 µM (inactive)	> 100 µM (inactive)		> 100 µM (inactive)	> 100 µM (inactive)	> 100 µM (inactive)	> 100 µM (inactive)	> 100 µM (inactive)	> 100 µM (inactive)	> 100 µM (inactive)	> 100 µM (inactive)	> 100 µM (inactive)	> 100 µM (inactive)	> 100 µM (inactive)	> 100 µM (inactive)
Clc1nss/c1=N/c1nonc1-c1ccccc1	30.5 µM (inactive)	68.9 µM (inactive)	18.6 µM (inactive)	29.6 µM (inactive)	20.4 µM (inactive)	34.9 µM (inactive)	40.2 µM (inactive)	23.2 µM (inactive)	29.6 µM (inactive)	> 100 µM (inactive)	28.6 µM (inactive)	55.2 µM (inactive)	48.1 µM (inactive)	55.6 µM (inactive)			33.3 µM (inactive)	34.9 µM (inactive)	17.6 µM (inactive)
CCn1c(-c2ccccc2)cs/c1=N\C(P(=O)(O)O)P(=O)(O)O	> 100 µM (inactive)	> 100 µM (inactive)	> 100 µM (inactive)	> 100 µM (inactive)	> 100 µM (inactive)	> 100 µM (inactive)	> 100 µM (inactive)	> 100 µM (inactive)	> 100 µM (inactive)	> 100 µM (inactive)	> 100 µM (inactive)	> 100 µM (inactive)	> 100 µM (inactive)	> 100 µM (inactive)		> 100 µM (inactive)	> 100 µM (inactive)		> 100 µM (inactive)
C[n+]1c2ccccc2c(C(=O)NC(CCCNC(=N)N)C(=O)O)c2ccccc21 (centres undefined)	> 100 µM (inactive)	> 100 µM (inactive)	> 100 µM (inactive)	> 100 µM (inactive)	> 100 µM (inactive)	> 100 µM (inactive)		> 100 µM (inactive)		> 100 µM (inactive)	> 100 µM (inactive)	> 100 µM (inactive)	> 100 µM (inactive)	> 100 µM (inactive)	> 100 µM (inactive)	> 100 µM (inactive)	> 100 µM (inactive)	> 100 µM (inactive)	> 100 µM (inactive)
CCSCCCN(CCCSCC)CCCSCC	> 100 µM (inactive)	> 100 µM (inactive)		> 100 µM (inactive)	> 100 µM (inactive)	> 100 µM (inactive)	5.16 µM (inactive)	> 100 µM (inactive)		> 100 µM (inactive)	> 100 µM (inactive)	> 100 µM (inactive)	> 100 µM (inactive)	> 100 µM (inactive)	> 100 µM (inactive)		> 100 µM (inactive)		> 100 µM (inactive)
COC(=O)C1Cc2cc3c(cc2C1=O)CCCC3 (centres undefined)	66.5 µM (inactive)	> 100 µM (inactive)	94.6 µM (inactive)	22.3 µM (inactive)	> 100 µM (inactive)	42.3 µM (inactive)		33.6 µM (inactive)	23.8 µM (inactive)	> 100 µM (inactive)	46.6 µM (inactive)	62.1 µM (inactive)	> 100 µM (inactive)	56.5 µM (inactive)	37.6 µM (inactive)	28 µM (inactive)	> 100 µM (inactive)	> 100 µM (inactive)	51.9 µM (inactive)
